How the values were obtained:
GP2D (KRAS G12D) cells = experiment: 2D cell viability assay (CellTiter-Glo); assay type: cell-based; conditions: GP2d, 96 h, 4 days
How it was run: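 GP2D (KRAS G12D) cells, 1000/well in RPMI + 10% FBS, were plated onto compound (1:3 DMSO series) and grown 4 days at 37 °C, 5% CO2 in 2D. CellTiter-Glo luminescence was read; EC50 is the concentration giving 50% signal decrease, from sigmoidal fit.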

GDP-loaded KRAS G12D = GDP-loaded KRAS G12D (Homo sapiens (Human), UniProt P01116, G12D); experiment: KRAS G12D (GDP) biochemical assay (TR-FRET probe displacement); assay type: binding; conditions: 2 hours
Sequence of GDP-loaded KRAS G12D (P01116-2 other isoform, or with tags, fused parts or gaps G12D): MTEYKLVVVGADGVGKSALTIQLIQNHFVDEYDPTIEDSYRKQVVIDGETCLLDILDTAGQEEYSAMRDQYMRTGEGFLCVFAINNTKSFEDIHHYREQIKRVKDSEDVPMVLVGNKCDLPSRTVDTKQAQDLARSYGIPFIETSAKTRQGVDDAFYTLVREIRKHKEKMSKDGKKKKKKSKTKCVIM
How it was run: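 Compound pre-incubated 30 min with GDP-loaded KRAS G12D in 50 mM Hepes pH 7.4, 150 mM NaCl, 5 mM MgCl2, 0.005% Tween-20, then Eu-streptavidin and TR-FRET probe added. After 2 h at room temperature, TR-FRET ratio read; IC50 is 50% ratio decrease, sigmoidal fit.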

| Structure (SMILES) | EC50 (GP2D (KRAS G12D) cells) | IC50 (GDP-loaded KRAS G12D) |
| --- | --- | --- |
| C#Cc1c(F)ccc2cc(O)cc(-c3nc4c5c(nc(OCC6(CN7CC[C@@H](C(F)(F)F)C7)CC6)nc5c3F)N3C[C@H]5CC[C@H](N5)[C@H]3CC4)c12 [Example 70, 5-ethynyl-6-fluoro-4-((5aR,6S,9R)-1-fluoro-12-((1-(((R)-3-(trifluoromethyl)pyrrolidin-1-yl)methyl)cyclopropyl)methoxy)-4,5,5a,6,7,8,9,10-octahydro-3,10a,11,13,14-pentaaza-6,9-methanonaphtho[1,8-ab]heptalen-2-yl)naphthalen-2-ol] | 1 nM | 0.1 nM |
| C#Cc1c(F)ccc2cc(O)cc(-c3nc4c5c(nc(OC[C@@]67CCCN6C[C@H](F)C7)nc5c3F)N3C[C@H]5CC[C@H](N5)[C@H]3[C@H](C3CC3)O4)c12 [Example 71, 4-((5S,5aS,6S,9R)-5-cyclopropyl-1-fluoro-12-(((2R,7aS)-2-fluorotetrahydro-1H-pyrrolizin-7a(5H)-yl)methoxy)-5a,6,7,8,9,10-hexahydro-5H-4-oxa-3,10a,11,13,14-pentaaza-6,9-methanonaphtho[1,8-ab]heptalen-2-yl)-5-ethynyl-6-fluoronaphthalen-2-ol] | 81 nM | 4 nM |
| Fc1ccc(-c2nc3c4c(nc(OC[C@@]56CCCN5C[C@H](F)C6)nc4c2F)N2C[C@H]4CC[C@H](N4)[C@H]2CO3)c2ccccc12 [Example 72, (5aS,6S,9R)-1-fluoro-2-(4-fluoronaphthalen-1-yl)-12-(((2R,7aS)-2-fluorotetrahydro-1H-pyrrolizin-7a(5H)-yl)methoxy)-5a,6,7,8,9,10-hexahydro-5H-4-oxa-3,10a,11,13,14-pentaaza-6,9-methanonaphtho[1,8-ab]heptalene] | > 1000 nM | 510 nM |
| C#Cc1c(F)ccc2cc(O)cc(-c3nc4c5c(nc(OC[C@@]67CCCN6C[C@H](F)C7)nc5c3F)N3C[C@H]5CC[C@H](N5)[C@@H]3CCO4)c12 [Example 77, 5-ethynyl-6-fluoro-4-((6aS,7S,10R)-1-fluoro-13-(((2R,7aS)-2-fluorotetrahydro-1H-pyrrolizin-7a(5H)-yl)methoxy)-5,6,6a,7,8,9,10,11-octahydro-4-oxa-3,11a,12,14,15-pentaaza-7,10-methanocyclohepta[4,5]cycloocta[1,2,3-de]naphthalen-2-yl)naphthalen-2-ol] | 83 nM | 6 nM |
| C#Cc1c(F)ccc2cc(O)cc(-c3nc4c5c(nc(OC[C@@]67CCCN6C[C@H](F)C7)nc5c3F)N3C[C@H]5CC[C@H](N5)[C@@H]3[C@H](C)C4)c12 [Example 79, 5-ethynyl-6-fluoro-4-((5R,5aS,6S,9R)-1-fluoro-12-(((2R,7aS)-2-fluorotetrahydro-1H-pyrrolizin-7a(5H)-yl)methoxy)-5-methyl-4,5,5a,6,7,8,9,10-octahydro-3,10a,11,13,14-pentaaza-6,9-methanonaphtho[1,8-ab]heptalen-2-yl)naphthalen-2-ol] | 15.3 nM | 7 nM |
| C#Cc1c(F)ccc2cc(O)cc(-c3nc4c5c(nc(OC[C@@]67CCCN6C[C@H](F)C7)nc5c3F)N3C[C@H]5CC[C@H](N5)[C@H]3[C@@H](C(F)F)O4)c12 [Example 82, 4-((5S,5aS,6S,9R)-5-(difluoromethyl)-1-fluoro-12-(((2R,7aS)-2-fluorotetrahydro-1H-pyrrolizin-7a(5H)-yl)methoxy)-5a,6,7,8,9,10-hexahydro-5H-4-oxa-3,10a,11,13,14-pentaaza-6,9-methanonaphtho[1,8-ab]heptalen-2-yl)-5-ethynyl-6-fluoronaphthalen-2-ol] | 104 nM | 11.4 nM |
| C#Cc1c(F)ccc2cccc(-c3nc4c5c(nc(OC[C@@]67CCCN6[C@H](COC(C(F)(F)F)(C(F)(F)F)C(F)(F)F)CC7)nc5c3F)N3C[C@H]5CC[C@H](N5)[C@@H]3[C@@H](C)C4)c12 [Example 83, (5S,5aS,6S,9R)-2-(8-ethynyl-7-fluoronaphthalen-1-yl)-1-fluoro-12-(((3S,7aS)-3-(((1,1,1,3,3,3-hexafluoro-2-(trifluoromethyl)propan-2-yl)oxy)methyl)tetrahydro-1H-pyrrolizin-7a(5H)-yl)methoxy)-5-methyl-4,5,5a,6,7,8,9,10-octahydro-3,10a,11,13,14-pentaaza-6,9-methanonaphtho[1,8-ab]heptalene] | 67.4 nM | 3.2 nM |
| C#Cc1c(F)ccc2cccc(-c3nc4c5c(nc(OC[C@@]67CCCN6C[C@H](F)C7)nc5c3F)N3C[C@H]5CC[C@H](N5)[C@@H]3[C@@H](C)C4)c12 [Example 84, (5S,5aS,6S,9R)-2-(8-ethynyl-7-fluoronaphthalen-1-yl)-1-fluoro-12-(((2R,7aS)-2-fluorotetrahydro-1H-pyrrolizin-7a(5H)-yl)methoxy)-5-methyl-4,5,5a,6,7,8,9,10-octahydro-3,10a,11,13,14-pentaaza-6,9-methanonaphtho[1,8-ab]heptalene] | 27.7 nM | 3.9 nM |
| C#Cc1c(F)ccc2cccc(-c3nc4c5c(nc(OC[C@@]67CCCN6C[C@@]6(CC6(F)F)C7)nc5c3F)N3C[C@H]5CC[C@H](N5)[C@@H]3[C@@H](C)C4)c12 [Example 85, (5S,5aS,6S,9R)-12-(((1S,7a'S)-2,2-difluorodihydro-1′H,3′H-spiro[cyclopropane-1,2′-pyrrolizin]-7a′(5′H)-yl)methoxy)-2-(8-ethynyl-7-fluoronaphthalen-1-yl)-1-fluoro-5-methyl-4,5,5a,6,7,8,9,10-octahydro-3,10a,11,13,14-pentaaza-6,9-methanonaphtho[1,8-ab]heptalene] | 58 nM | 6.8 nM |
| C#Cc1c(F)ccc2cccc(-c3nc4c5c(nc(OCC6(CN7CCC(OC(F)(F)F)CC7)CC6)nc5c3F)N3C[C@H]5CC[C@H](N5)[C@@H]3[C@@H](C)C4)c12 [Example 88, (5S,5aS,6S,9R)-2-(8-ethynyl-7-fluoronaphthalen-1-yl)-1-fluoro-5-methyl-12-((1-((4-(trifluoromethoxy)piperidin-1-yl)methyl)cyclopropyl)methoxy)-4,5,5a,6,7,8,9,10-octahydro-3,10a,11,13,14-pentaaza-6,9-methanonaphtho[1,8-ab]heptalene] | 255 nM | 36.5 nM |
| C#Cc1c(F)ccc2cccc(-c3nc4c5c(nc(OCC6(CN7CC[C@H](OC(F)(F)F)C7)CC6)nc5c3F)N3C[C@H]5CC[C@H](N5)[C@@H]3[C@@H](C)C4)c12 [Example 89, (5S,5aS,6S,9R)-2-(8-ethynyl-7-fluoronaphthalen-1-yl)-1-fluoro-5-methyl-12-((1-(((S)-3-(trifluoromethoxy)pyrrolidin-1-yl)methyl)cyclopropyl)methoxy)-4,5,5a,6,7,8,9,10-octahydro-3,10a,11,13,14-pentaaza-6,9-methanonaphtho[1,8-ab]heptalene] | 379 nM | 50.9 nM |
| C#Cc1c(F)ccc2cc(O)cc(-c3nc4c5c(nc(OC[C@@]67CCCN6C[C@H](F)C7)nc5c3F)N3C[C@H]5CC[C@H](N5)[C@@H]3[C@H](CC)C4)c12 [Example 90, 4-((5R,5aS,6S,9R)-5-ethyl-1-fluoro-12-(((2R,7aS)-2-fluorotetrahydro-1H-pyrrolizin-7a(5H)-yl)methoxy)-4,5,5a,6,7,8,9,10-octahydro-3,10a,11,13,14-pentaaza-6,9-methanonaphtho[1,8-ab]heptalen-2-yl)-5-ethynyl-6-fluoronaphthalen-2-ol] | 1000 nM | 100 nM |
